Measured values as given in patent US7485669B2, “Blockade of sodium channels by phenol derivatives” (B. Braun Melsungen AG, priority 2000, dated 2009).
Read-outs that look alike come from different tables or passages of the source.

Experiments:
[1] = target: T1, human skeletal muscle sodium channels (Homo sapiens, UniProt P35499); experiment: Whole-cell voltage-clamp of heterologously expressed human skeletal muscle sodium channels in HEK 293 cells; type: cell-based; details: for time constant of channel inactivation τh: 40 ms steps −100 mV to 0 mV, control 0.43±0.08 ms; for frequency-dependent block: additional fall relative to the first pulse: 100 Hz train, −100 mV to 0 mV
T1 construct: expressed in transfected cells
Source text: The sodium channel blocking potency effects of different phenol derivatives with methyl and halogen substituents have been studied on heterologously expressed human skeletal muscle sodium channels. The phenol derivatives encompassed by formula (I) are either commercially available or can be synthesized by conventional standard laboratory methods.
Wild type α-subunits of human muscle sodium channels were heterologously expressed in human embryonic kidney (HEK 293) cells, a stable cell line since […] (American Tissue Culture Collection CRL 1573). Transfection was performed using calcium phosphate precipitation (Graham & Van der Eb, Virology, 52 (1973) 456-467). Permanent expression was achieved by selection for resistance to the aminoglycoside antibiotic geneticin G418 (Life Technology, Eggenstein, Germany) (Mitotic et al., J. Physiol., 478 (1994) 395-402). Successful channel expression was verified electrophysiologically. The clone has been used in several investigations (Haeseler et al.,Br. J. Pharmacol., 128 (1999) 1259-67; Haeseler et al., Br. J. Pharmacol. 130 (2000) 1321-1330; Mitrovic et al., ibid.).
3,5-dimethyl-4-chlorophenol (according to the invention) and 3-methylphenol (not according to the invention) were purchased from Sigma Chemicals, Deisenhofen, Germany; 4-chloro-2-methylphenol (not according to the invention) and 4-chlorophenol (not according to the invention) were from FLUKA, Deisenhofen, Germany. 3,5-Dimethyl-4-chlorophenol was prepared as a 1 M stock solution in methanol; 4-chloro-2-methylphenol, 4-chlorophenol, and 3-methylphenol were dissolved directly in the bath solution immediately before the experiments. Concentrations were calculated from the amount injected into the glass vials. Drug-containing solutions were protected from light and were vigorously vortexed for 60 min. The solution was applied via a glass polytetrafluoroethylene perfusion system and a stainless steel superfusion pipette. The bath solution contained (mM) NaCl 140, MgCl2 1.0, KCl 4.0, CaCl2 2.0, Hepes 5.0, dextrose 5.0. Patch electrodes contained (mM) […] 130, MgCl2 2.0, EGTA 5.0, Hepes 10. All solutions were adjusted to 290 mosm/l by the addition of mannitol and to pH 7.4 by the addition of CsOH.
Standard whole-cell voltage-clamp experiments (Hamill et al., Pfuegers Arch., 391 (1981) 85-100) were performed at 20° C. Each experiment consisted of test recordings with the drug present at only one concentration, and of drug-free control recordings before and after the test. Each whole-cell patch was exposed to one test concentration only. At least four experiments were performed at each concentration. The amount of the diluent methanol corresponding to the test concentration of 3,5-dimethyl-4-chlorophenol was added to the control solution. Patched cells were lifted into the visible stream of either bath solution or test solution, applied via a two-channel superfusion pipette close to the cell. To ensure adequate adjustment of the application device, one test experiment in distilled water reducing inward sodium current to zero was performed every 6-10 experiments.
For data acquisition and further analysis we used the EPC9 digitally-controlled amplifier in combination with Pulse and Pulse Fit software (HEKA Electronics, Lambrecht, Germany). The EPC9 provides automatic subtraction of capacitive and leakage currents by means of a prepulse protocol. The data were filtered at 10 kHz and digitized at 20 μs per point. Input resistance of the patch pipettes was at 1.8-2.5 MΩ. Only small cells with capacitances of 9-15 pF were used; residual series resistance (after 50% compensation) was 1.2-2.5 MΩ; experiments with a rise in series resistance were rejected. The time constant of the voltage settling within the membrane (residual series resistance×cell capacitance) was less than 35 μs. […]

[2] = target: heterologously expressed muscle sodium channels (Homo sapiens, UniProt P35499); details: −100 mV; Fan et al. 1996; read-out: IC50 for block of heterologously expressed muscle sodium channels at −100 mV; cited from earlier work
[3] = IC50 for block of inward sodium current at a holding potential of −150 mV, holding potential −150 mV, 10 ms pulse to 0 mV
[4] = IC50 for block of sodium currents on depolarization from -100 mV to 0 mV, holding potential −100 mV, test pulse to 0 mV

T1 sequence (P35499 whole entry): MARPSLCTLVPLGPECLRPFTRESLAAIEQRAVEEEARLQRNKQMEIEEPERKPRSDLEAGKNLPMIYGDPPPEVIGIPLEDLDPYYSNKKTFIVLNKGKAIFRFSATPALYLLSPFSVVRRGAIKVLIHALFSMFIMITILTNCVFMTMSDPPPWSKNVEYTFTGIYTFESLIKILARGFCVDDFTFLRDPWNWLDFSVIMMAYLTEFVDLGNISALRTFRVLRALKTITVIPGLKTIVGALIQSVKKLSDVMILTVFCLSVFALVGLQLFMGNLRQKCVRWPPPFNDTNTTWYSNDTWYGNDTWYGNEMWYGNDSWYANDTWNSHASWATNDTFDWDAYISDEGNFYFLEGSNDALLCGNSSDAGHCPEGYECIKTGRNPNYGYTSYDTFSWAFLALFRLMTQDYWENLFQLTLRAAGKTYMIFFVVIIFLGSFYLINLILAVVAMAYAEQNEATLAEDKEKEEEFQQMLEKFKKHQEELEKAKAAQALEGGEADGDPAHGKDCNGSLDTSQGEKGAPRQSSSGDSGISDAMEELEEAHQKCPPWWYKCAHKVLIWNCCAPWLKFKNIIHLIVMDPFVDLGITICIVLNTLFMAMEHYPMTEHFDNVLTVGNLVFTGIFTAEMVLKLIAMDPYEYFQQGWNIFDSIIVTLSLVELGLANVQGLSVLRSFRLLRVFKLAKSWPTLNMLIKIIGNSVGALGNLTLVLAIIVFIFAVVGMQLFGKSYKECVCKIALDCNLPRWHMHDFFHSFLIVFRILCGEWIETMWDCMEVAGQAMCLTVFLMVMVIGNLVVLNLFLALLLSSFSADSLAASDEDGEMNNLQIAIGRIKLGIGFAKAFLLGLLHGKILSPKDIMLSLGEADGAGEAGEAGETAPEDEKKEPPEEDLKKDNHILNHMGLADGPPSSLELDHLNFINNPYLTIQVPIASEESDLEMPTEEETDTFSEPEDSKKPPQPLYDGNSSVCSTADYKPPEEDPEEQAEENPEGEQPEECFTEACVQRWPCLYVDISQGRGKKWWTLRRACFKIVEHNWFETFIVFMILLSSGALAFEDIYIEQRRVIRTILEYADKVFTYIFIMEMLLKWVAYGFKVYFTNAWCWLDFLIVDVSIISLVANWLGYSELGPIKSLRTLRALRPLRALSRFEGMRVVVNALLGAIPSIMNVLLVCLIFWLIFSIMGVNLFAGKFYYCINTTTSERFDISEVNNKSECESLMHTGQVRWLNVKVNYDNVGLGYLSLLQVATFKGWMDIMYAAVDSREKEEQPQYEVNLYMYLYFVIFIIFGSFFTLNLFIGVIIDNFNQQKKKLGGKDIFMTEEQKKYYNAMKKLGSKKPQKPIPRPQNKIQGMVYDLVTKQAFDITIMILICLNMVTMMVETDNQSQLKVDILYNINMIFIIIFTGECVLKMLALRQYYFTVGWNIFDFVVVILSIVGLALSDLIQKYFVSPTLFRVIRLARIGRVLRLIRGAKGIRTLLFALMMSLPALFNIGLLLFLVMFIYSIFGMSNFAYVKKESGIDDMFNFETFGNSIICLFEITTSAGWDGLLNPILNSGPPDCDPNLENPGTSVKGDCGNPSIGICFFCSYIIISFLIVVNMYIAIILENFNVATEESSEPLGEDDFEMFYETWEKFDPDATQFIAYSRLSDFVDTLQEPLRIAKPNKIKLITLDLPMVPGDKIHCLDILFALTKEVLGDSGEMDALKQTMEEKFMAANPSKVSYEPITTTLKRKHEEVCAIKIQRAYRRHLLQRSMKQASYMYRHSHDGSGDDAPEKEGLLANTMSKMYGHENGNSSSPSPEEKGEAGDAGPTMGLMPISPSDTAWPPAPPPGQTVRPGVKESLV
heterologously expressed muscle sodium channels, sequence (P35499 whole entry): as above

## Cc1cc(O)cc(C)c1Cl [3,5-dimethyl-4-chlorophenol]
[1]; 50 μM drug
  time constant of channel inactivation τh: 0.27 ± 0.02 ms
[1]; 300 μM drug
  frequency-dependent block: additional fall relative to the first pulse: 17±5%
[1]; derived from drug-induced shifts in steady-state availability curves, read-out: KD for the fast-inactivated state
  Kd: 14 µM
[1]; holding potential −100 mV, test pulse to 0 mV, read-out: IC50 for block of sodium currents on depolarization from -100 mV to 0 mV
  IC50: 150 µM
[1]; holding potential −150 mV, 10 ms pulse to 0 mV, read-out: IC50 for block of inward sodium current at a holding potential of −150 mV
  IC50: 162 µM

## Cc1cccc(O)c1 [3-methylphenol]
[1]; 1000 μM drug
  time constant of channel inactivation τh: 0.30 ± 0.08 ms
[1]; 3000 μM drug
  frequency-dependent block: additional fall relative to the first pulse: 8±2%
[1]; [3]
  IC50: 2400 µM
[1]; [4]
  IC50: 2160 µM

## Cc1cc(Cl)ccc1O [4-chloro-2-methylphenol]
[1]; 100 μM drug
  time constant of channel inactivation τh: 0.27 ± 0.05 ms
[1]; 500 μM drug
  frequency-dependent block: additional fall relative to the first pulse: 16±5%
[1]; [3]
  IC50: 316 µM
[1]; [4]
  IC50: 268 µM

## Oc1ccc(Cl)cc1 [4-chlorophenol]
[1]; 500 μM drug
  time constant of channel inactivation τh: 0.23 ± 0.03 ms
[1]; 1000 μM drug
  frequency-dependent block: additional fall relative to the first pulse: 13±2%
[1]; [3]
  IC50: 751 µM
[1]; [4]
  IC50: 666 µM

## CCN(CC)CC(=O)Nc1c(C)cccc1C [lidocaine, 2-diethylamino-2′,6′-dimethylacetanilide]
[2]
  IC50: 500 µM
